Earlier results, collected in patent US20130137664A1, “LOW-DOSED SOLID ORAL DOSAGE FORMS FOR HRT” (BAYER INTELLECTUAL PROPERTY GMBH, priority 2010, published 2013).

Test system: moderate or severe hot flushes in menopausal women
Details: 2 mg E2

## C[C@]12CC[C@@H]3c4ccc(O)cc4CC[C@H]3[C@@H]1CC[C@@H]2O [E2, estradiol]
  estrogen-related adverse events: increased
